ChEMBL document CHEMBL3576778, “Structure-Activity Relationship Studies of a Series of Semisynthetic Lipopeptides Leading to the Discovery of Surotomycin, a Novel Cyclic Lipopeptide Being Developed for the Treatment of Clostridium difficile-Associated Diarrhea” (J Med Chem, 2015)
≈ marks a conversion by molar mass, not a printed value.

What was measured:
Type in all cases: functional
[1] = tested on: Staphylococcus aureus; assay: Potency index, ratio of MIC for daptomycin to MIC for test compound against daptomycin-non-susceptible Staphylococcus aureus 278 incubated anaerobically at 37 degC for 48 hrs by agar dilution method
[2] = tested on: Staphylococcus aureus; assay: Antimicrobial activity against daptomycin-non-susceptible Staphylococcus aureus 5014 incubated anaerobically at 37 degC for 48 hrs by agar dilution method; conditions: Staphylococcus aureus, 5014, 48 h
[3] = tested on: Staphylococcus aureus; assay: Antimicrobial activity against daptomycin-non-susceptible Staphylococcus aureus 5005 incubated anaerobically at 37 degC for 48 hrs by agar dilution method; conditions: Staphylococcus aureus, 5005, 48 h
[4] = tested on: Staphylococcus aureus; assay: Potency index, ratio of MIC for daptomycin to MIC for test compound against daptomycin-non-susceptible Staphylococcus aureus 5034 incubated anaerobically at 37 degC for 48 hrs by agar dilution method
[5] = tested on: Staphylococcus aureus; assay: Antimicrobial activity against daptomycin-non-susceptible Staphylococcus aureus 5010 incubated anaerobically at 37 degC for 48 hrs by agar dilution method; conditions: Staphylococcus aureus, 5010, 48 h
[6] = tested on: Staphylococcus aureus; assay: Potency index, ratio of MIC for daptomycin to MIC for test compound against daptomycin-non-susceptible Staphylococcus aureus 5003 incubated anaerobically at 37 degC for 48 hrs by agar dilution method
[7] = tested on: Staphylococcus aureus; assay: Antimicrobial activity against daptomycin-non-susceptible Staphylococcus aureus 5091 incubated anaerobically at 37 degC for 48 hrs by agar dilution method; conditions: Staphylococcus aureus, 5091, 48 h
[8] = tested on: Staphylococcus aureus; assay: Potency index, ratio of MIC for daptomycin to MIC for test compound against daptomycin-non-susceptible Staphylococcus aureus 5080 incubated anaerobically at 37 degC for 48 hrs by agar dilution method
[9] = tested on: Staphylococcus aureus; assay: Potency index, ratio of MIC for daptomycin to MIC for test compound against daptomycin-non-susceptible Staphylococcus aureus 1146 incubated anaerobically at 37 degC for 48 hrs by agar dilution method
[10] = tested on: Staphylococcus aureus; assay: Potency index, ratio of MIC for daptomycin to MIC for test compound against daptomycin-non-susceptible Staphylococcus aureus 399 incubated anaerobically at 37 degC for 48 hrs by agar dilution method
[11] = tested on: Staphylococcus aureus; assay: Antimicrobial activity against daptomycin-non-susceptible Staphylococcus aureus 5003 incubated anaerobically at 37 degC for 48 hrs by agar dilution method; conditions: Staphylococcus aureus, 5003, 48 h
[12] = tested on: Staphylococcus aureus; assay: Antimicrobial activity against daptomycin-susceptible Staphylococcus aureus ATCC 29213 incubated anaerobically at 37 degC for 48 hrs by agar dilution method; conditions: ATCC 29213, 48 h
[13] = tested on: Staphylococcus aureus; assay: Antimicrobial activity against daptomycin-non-susceptible Staphylococcus aureus 5033 incubated anaerobically at 37 degC for 48 hrs by agar dilution method; conditions: Staphylococcus aureus, 5033, 48 h
[14] = tested on: Enterococcus faecalis; assay: Potency index, ratio of MIC for daptomycin to MIC for test compound against daptomycin-resistant Enterococcus faecalis ATCC 49452 incubated anaerobically at 37 degC for 48 hrs by agar dilution method
[15] = tested on: Enterococcus faecium; assay: Antimicrobial activity against daptomycin-resistant Enterococcus faecium ATCC 6569 incubated anaerobically at 37 degC for 48 hrs by agar dilution method; conditions: ATCC 6569, 48 h
[16] = tested on: Staphylococcus aureus; assay: Antimicrobial activity against daptomycin-non-susceptible Staphylococcus aureus 5080 incubated anaerobically at 37 degC for 48 hrs by agar dilution method; conditions: Staphylococcus aureus, 5080, 48 h
[17] = tested on: Staphylococcus aureus; assay: Potency index, ratio of MIC for daptomycin to MIC for test compound against daptomycin-non-susceptible Staphylococcus aureus 5060 incubated anaerobically at 37 degC for 48 hrs by agar dilution method
[18] = tested on: Enterococcus faecium; assay: Potency index, ratio of MIC for daptomycin to MIC for test compound against Enterococcus faecium ATCC 6569 incubated anaerobically at 37 degC for 48 hrs by agar dilution method
[19] = tested on: Staphylococcus aureus; assay: Potency index, ratio of MIC for daptomycin to MIC for test compound against daptomycin-non-susceptible Staphylococcus aureus 5017 incubated anaerobically at 37 degC for 48 hrs by agar dilution method
[20] = tested on: Staphylococcus aureus; assay: Antimicrobial activity against daptomycin-non-susceptible Staphylococcus aureus 5063 incubated anaerobically at 37 degC for 48 hrs by agar dilution method; conditions: Staphylococcus aureus, 5063, 48 h
[21] = tested on: Staphylococcus aureus; assay: Potency index, ratio of MIC for daptomycin to MIC for test compound against daptomycin-non-susceptible Staphylococcus aureus 1179 incubated anaerobically at 37 degC for 48 hrs by agar dilution method
[22] = tested on: Staphylococcus aureus; assay: Antimicrobial activity against daptomycin-non-susceptible Staphylococcus aureus 1326 incubated anaerobically at 37 degC for 48 hrs by agar dilution method; conditions: Staphylococcus aureus, 1326, 48 h
[23] = tested on: Staphylococcus aureus; assay: Antimicrobial activity against daptomycin-non-susceptible Staphylococcus aureus 42 incubated anaerobically at 37 degC for 48 hrs by agar dilution method; conditions: Staphylococcus aureus, 42, 48 h
[24] = tested on: Clostridioides difficile; assay: Antimicrobial activity against vancomycin-resistant Clostridium difficile
[25] = tested on: Clostridioides difficile; assay: Antimicrobial activity against metronidazole-resistant Clostridium difficile
[26] = tested on: Staphylococcus aureus; assay: Potency index, ratio of MIC for daptomycin to MIC for test compound against daptomycin-non-susceptible Staphylococcus aureus 5033 incubated anaerobically at 37 degC for 48 hrs by agar dilution method
[27] = tested on: Staphylococcus aureus; assay: Potency index, ratio of MIC for daptomycin to MIC for test compound against daptomycin-non-susceptible Staphylococcus aureus 5059 incubated anaerobically at 37 degC for 48 hrs by agar dilution method
[28] = tested on: Staphylococcus aureus; assay: Potency index, ratio of MIC for daptomycin to MIC for test compound against daptomycin-non-susceptible Staphylococcus aureus 5005 incubated anaerobically at 37 degC for 48 hrs by agar dilution method
[29] = tested on: Staphylococcus aureus; assay: Antimicrobial activity against daptomycin-non-susceptible Staphylococcus aureus 1146 incubated anaerobically at 37 degC for 48 hrs by agar dilution method; conditions: Staphylococcus aureus, 1146, 48 h
[30] = tested on: Staphylococcus aureus; assay: Antimicrobial activity against daptomycin-non-susceptible Staphylococcus aureus 5081 incubated anaerobically at 37 degC for 48 hrs by agar dilution method; conditions: Staphylococcus aureus, 5081, 48 h

## CCCCCc1ccc(/C(C)=C/C(=O)N[C@@H](Cc2c[nH]c3ccccc23)C(=O)N[C@H](CC(N)=O)C(=O)N[C@@H](CC(=O)O)C(=O)N[C@@H]2C(=O)NCC(=O)N[C@@H](CCCN)C(=O)N[C@@H](CC(=O)O)C(=O)N[C@H](C)C(=O)N[C@@H](CC(=O)O)C(=O)NCC(=O)N[C@H](CO)C(=O)N[C@@H]([C@@H](C)CC(=O)O)C(=O)N[C@@H](CC(=O)c3ccccc3N)C(=O)O[C@@H]2C)cc1
[1]
  Ratio: 2
[2]
  MIC: 0.25 µg/mL (≈ 0.149 µM)
[3]
  MIC: 1 µg/mL (≈ 0.595 µM)
[4]
  Ratio: 2
[5]
  MIC: 0.25 µg/mL (≈ 0.149 µM)
[6]
  Ratio: 2
[7]
  MIC: 0.5 µg/mL (≈ 0.297 µM)
[8]
  Ratio: 2
[9]
  Ratio: 2
[10]
  Ratio: 2
[11]
  MIC: 0.25 µg/mL (≈ 0.149 µM)
[12]
  MIC: 0.25 µg/mL (≈ 0.149 µM)
[13]
  MIC: 0.25 µg/mL (≈ 0.149 µM)
[14]
  Ratio: >8
[15]
  MIC: 4 µg/mL (≈ 2.38 µM)
[16]
  MIC: 1 µg/mL (≈ 0.595 µM)
[17]
  Ratio: 2
[18]
  Ratio: >8
[19]
  Ratio: 2
[20]
  MIC: 1 µg/mL (≈ 0.595 µM)
[21]
  Ratio: 2
[22]
  MIC: 0.5 µg/mL (≈ 0.297 µM)
[23]
  MIC: 0.125 µg/mL (≈ 0.0744 µM)
[24]
  MIC: 0.125 µg/mL (≈ 0.0744 µM)
[25]
  MIC: 0.5 µg/mL (≈ 0.297 µM)
[26]
  Ratio: 2
[27]
  Ratio: 2
[28]
  Ratio: 2
[29]
  MIC: 0.25 µg/mL (≈ 0.149 µM)
[30]
  MIC: 1 µg/mL (≈ 0.595 µM)
